From US9751837B2, “Kinase inhibitors” (RESPIVERT LIMITED, priority 2014, dated 2017)
pIC50: −log10 of the molar value.

What was measured:
[1] = molecular target: p38 MAPKα (MAPK14) (Homo sapiens (Human), UniProt Q16539); experiment: p38 MAPKα enzyme inhibition (Method 2), Z-LYTE FRET; format: biochemical
Method: (§1) The enzyme inhibitory activities of compounds disclosed herein are determined by FRET using synthetic peptides labelled with both donor and acceptor fluorophores (Z-LYTE, Invitrogen Ltd., Paisley, UK).
The following two assay variants can be used for determination of p38 MAPKα inhibition.
The inhibitory activities of test compounds against the p38 MAPKα isoform (MAPK14: Invitrogen) are evaluated indirectly by determining the level of activation/phosphorylation of the down-stream molecule, MAPKAP-K2. The p38 MAPKα protein (80 ng/mL, 2.5 μL) is mixed with the test compound (2.5 μL of either 4 μg/mL, 0.4 μg/mL, 0.04 μg/mL or 0.004 μg/mL) for 2 hr at RT. […] The mixture is incubated for 1 hr at RT. Development reagent (protease, 5 μL) is added for 1 hr prior to detection in a fluorescence microplate reader (Varioskan® Flash, ThermoFisher Scientific). […]
(§2) In all cases, the site-specific protease cleaves non-phosphorylated peptide only and eliminates the FRET signal. Phosphorylation levels of each reaction are calculated using the ratio of coumarin emission (donor) over fluorescein emission (acceptor), for which high ratios indicate high phosphorylation and low ratios indicate low phosphorylation levels.

[2] = molecular target: c-Src (Homo sapiens (Human), UniProt P12931); experiment: c-Src enzyme inhibition, Z-LYTE FRET; format: biochemical
Chain of c-Src (P12931 whole entry, looked up): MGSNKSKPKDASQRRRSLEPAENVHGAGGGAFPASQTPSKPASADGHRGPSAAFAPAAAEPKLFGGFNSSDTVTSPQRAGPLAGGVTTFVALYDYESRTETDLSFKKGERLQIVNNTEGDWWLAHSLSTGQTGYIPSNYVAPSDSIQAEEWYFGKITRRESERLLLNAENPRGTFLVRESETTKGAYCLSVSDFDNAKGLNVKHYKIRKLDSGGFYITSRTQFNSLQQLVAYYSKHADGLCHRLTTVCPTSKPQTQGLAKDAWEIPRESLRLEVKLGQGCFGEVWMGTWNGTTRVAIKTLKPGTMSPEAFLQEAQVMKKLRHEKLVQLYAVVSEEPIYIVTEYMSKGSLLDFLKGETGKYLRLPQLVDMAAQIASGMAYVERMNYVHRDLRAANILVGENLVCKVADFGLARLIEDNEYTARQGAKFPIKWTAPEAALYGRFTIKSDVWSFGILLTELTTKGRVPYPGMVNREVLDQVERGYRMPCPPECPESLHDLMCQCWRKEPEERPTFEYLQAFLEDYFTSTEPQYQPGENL
Method: as §1
The inhibitory activities of compounds of the invention against c-Src and Syk enzymes (Invitrogen), are evaluated in a similar fashion to that described hereinabove. The relevant enzyme (3000 ng/mL or 2000 ng/mL respectively, 2.5 μL) is incubated with the test compound (either 1 μg/mL, 0.1 μg/mL, 0.01 μg/mL, or 0.001 μg/mL, 2.5 μL each) for 2 hr at RT. The FRET peptides (8 μM. 2.5 μL), and appropriate ATP solutions (2.5 μL, 800 μM for c-Src, and 60 μM ATP for Syk) are then added to the enzymes/compound mixtures and the mixture incubated for 1 hr. Development reagent (protease, 5 μL) is added for 1 hr prior to detection in a fluorescence microplate reader (Varioskan® Flash, ThermoFisher Scientific).
as §2

[3] = molecular target: Syk (Homo sapiens (Human), UniProt P43405); experiment: Syk enzyme inhibition, Z-LYTE FRET; format: biochemical
Method: as §1
The relevant enzyme (3000 ng/mL or 2000 ng/mL respectively, 2.5 μL) is incubated with the test compound (either 1 μg/mL, 0.1 μg/mL, 0.01 μg/mL, or 0.001 μg/mL, 2.5 μL each) for 2 hr at RT. […] Development reagent (protease, 5 μL) is added for 1 hr prior to detection in a fluorescence microplate reader (Varioskan® Flash, ThermoFisher Scientific).
as §2

[4] = Pharmacokinetics and total colon distribution after single oral administration; format: in vivo, male C57BL/6 mice; conditions: mice, oral 5 mg/kg; for total colon level: measured cpd = dosed cpd (1, 19, 47 as Na salt, 44 as NH4+ salt); for Mean blood concentration: measured cpd = dosed cpd (19, 47 as Na salt)
Method: Studies were conducted by Sai Life Sciences (Hinjewadi, Pune, India) to investigate the systemic pharmacokinetics and total colon tissue distribution of compounds of the invention. In particular, pharmacokinetic studies were carried out in male C57BL/6 mice following a single oral administration of the compound.

[5] = Hydrolytic stability study (DMSO/water 3:1, 60° C.); format: physicochemical
Method: Chemical stability of compounds of the invention was assessed in a mixture of DMSO and water (3:1) at a test compound concentration of 1 mg/mL.
General HPLC Procedure • Agilent, Waters X-Select C18, 2.5 μm, 4.6×30 mm column, 4 min method, 5-95% MeCN/water (0.1% formic acid). Flow rate 2.5 mL/min. Column Oven Temperature 40° C. Detection 254 nm.
Sample Preparation • A 1.0 mg sample of test compound was dissolved in 750 μL of DMSO. Water (250 μL) was added slowly, ensuring no precipitation occurred.
Recording Stability • A 50 μL aliquot of the test solution was removed and analysed in duplicate by 5 μL HPLC injections. The peak area for the test compound was recorded following manual integration of the corresponding UV trace. • The test solution was heated to 60° C., with stirring, and 50 μL aliquots removed for HPLC analysis at 5 and 24 h timepoints.

Chain of p38 MAPKα (MAPK14) (Q16539 whole entry): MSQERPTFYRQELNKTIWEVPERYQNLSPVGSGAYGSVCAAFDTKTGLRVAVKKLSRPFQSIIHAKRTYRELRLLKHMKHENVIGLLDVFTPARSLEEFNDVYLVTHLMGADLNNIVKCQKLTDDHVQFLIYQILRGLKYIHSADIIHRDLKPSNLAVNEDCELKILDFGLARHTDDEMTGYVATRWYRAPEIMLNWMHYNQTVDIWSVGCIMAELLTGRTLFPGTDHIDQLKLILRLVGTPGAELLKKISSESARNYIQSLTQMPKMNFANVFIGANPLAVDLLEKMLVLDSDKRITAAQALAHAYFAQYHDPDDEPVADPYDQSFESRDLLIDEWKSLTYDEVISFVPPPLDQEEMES

Compound	pIC50 [1]	pIC50 [2]	pIC50 [3]	total colon level ([4]; 0.5 h) [ng/g]	Mean blood concentration ([4]; 0.5 h) [ng/mL]	total colon level ([4]; 1 h) [ng/g]	Mean blood concentration ([4]; 1 h) [ng/mL]	total colon level ([4]; 2 h) [ng/g]	Mean blood concentration ([4]; 2 h) [ng/mL]	total colon level ([4]; 4 h) [ng/g]	Mean blood concentration ([4]; 4 h) [ng/mL]	total colon level ([4]; 6 h) [ng/g]	Mean blood concentration ([4]; 6 h) [ng/mL]	total colon level ([4]; 8 h) [ng/g]	Mean blood concentration ([4]; 8 h) [ng/mL]	total colon level ([4]; 12 h) [ng/g]	Mean blood concentration ([4]; 12 h) [ng/mL]	total colon level ([4]; 24 h) [ng/g]	Mean blood concentration ([4]; 24 h) [ng/mL]	decomposition under the conditions of the hydrolytic stability experiment [5]
COc1cc(Nc2cc(Oc3ccc(NC(=O)Nc4cc(C(C)(C)C)cc(NS(C)(=O)=O)c4OC)c4ccccc34)ccn2)ccc1C(=O)NCCOCCOCCOP(=O)(O)O [Example 19, 2-(2-(2-(4-((4-((4-(3-(5-(tert-Butyl)-2-methoxy-3-(methylsulfonamido)phenyl)ureido)naphthalen-1-yl)oxy)pyridin-2-yl)amino)-2-methoxybenzamido)ethoxy)ethoxy)ethyl dihydrogen phosphate]	8.10	7.66	8.10	0.0	0.0	0.0	0.0	0.0	0.0	0.0	0.0	0.0	0.0	0.0	0.0	0.0	0.0	0.0	0.0	
C#Cc1cc(Nc2nccc(Oc3ccc(NC(=O)Nc4cc(C(C)C)nn4-c4ccc(C)cc4)c4ccccc34)n2)cc(C(=O)NCCN2CCOCC2)c1 [Reference Compound B, 3-ethynyl-5-((4-((4-(3-(3-isopropyl-1-(p-tolyl)-1H-pyrazol-5-yl)ureido)naphthalen-1-yl)oxy)pyrimidin-2-yl)amino)-N-(2-morpholinoethyl)benzamide]																				substantial decomposition
